Experimental data reported in patent publication US8471063B2, “Michael systems as transglutaminase inhibitors” (Zedira GmbH, priority 2006, dated 2013).
*1 amine or outer side, *2 acyl side, *3 side chain or, on linkers, in order; H or OH if unused. Where a SMILES comes first, the peptide text is derived from it. [ ]: non-standard residue; d: D form. ξ: configuration not given here. X2 = COC(=O)/C=C/CC[C@H](N[*:1])C(=O)[*:2]; Ile(3ξ) = CCC(C)[C@H](N)C(=O)O

Key:
Format in all cases: biochemical
FXIII = molecular target: T1, FXIII (Homo sapiens, UniProt P00488); test: Transglutaminase inhibition, IC50 at FXIII; details: Table 1
T1 sequence (P00488 1-732): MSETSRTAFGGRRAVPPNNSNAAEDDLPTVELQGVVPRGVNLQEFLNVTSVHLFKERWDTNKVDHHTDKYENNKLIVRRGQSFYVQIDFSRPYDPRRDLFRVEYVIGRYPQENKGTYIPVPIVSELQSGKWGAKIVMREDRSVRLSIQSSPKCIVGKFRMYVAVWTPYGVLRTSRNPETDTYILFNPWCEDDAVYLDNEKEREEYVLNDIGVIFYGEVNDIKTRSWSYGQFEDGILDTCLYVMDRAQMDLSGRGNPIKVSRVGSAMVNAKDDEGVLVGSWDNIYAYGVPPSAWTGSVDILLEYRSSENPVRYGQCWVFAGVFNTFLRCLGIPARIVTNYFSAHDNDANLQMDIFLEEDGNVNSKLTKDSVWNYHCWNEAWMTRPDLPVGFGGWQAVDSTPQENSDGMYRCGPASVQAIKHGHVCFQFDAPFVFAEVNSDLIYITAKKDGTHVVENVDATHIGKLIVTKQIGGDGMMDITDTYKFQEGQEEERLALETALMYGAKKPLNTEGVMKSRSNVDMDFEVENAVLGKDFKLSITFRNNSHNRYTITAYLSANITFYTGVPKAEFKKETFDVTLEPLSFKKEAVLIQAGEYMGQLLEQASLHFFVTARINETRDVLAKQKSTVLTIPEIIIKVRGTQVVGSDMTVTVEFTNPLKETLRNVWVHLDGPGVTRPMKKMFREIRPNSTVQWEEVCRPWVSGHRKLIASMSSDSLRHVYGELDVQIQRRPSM

[1] = molecular target: T2, recombinant human tissue transglutaminase (His6-rh-TG2) (Homo sapiens, UniProt P21980); test: Inactivation of human tissue transglutaminase, fluorescence assay, IC50; details: Table 1; 5 min preincubation, 37° C.
T2 sequence (P21980 1-687): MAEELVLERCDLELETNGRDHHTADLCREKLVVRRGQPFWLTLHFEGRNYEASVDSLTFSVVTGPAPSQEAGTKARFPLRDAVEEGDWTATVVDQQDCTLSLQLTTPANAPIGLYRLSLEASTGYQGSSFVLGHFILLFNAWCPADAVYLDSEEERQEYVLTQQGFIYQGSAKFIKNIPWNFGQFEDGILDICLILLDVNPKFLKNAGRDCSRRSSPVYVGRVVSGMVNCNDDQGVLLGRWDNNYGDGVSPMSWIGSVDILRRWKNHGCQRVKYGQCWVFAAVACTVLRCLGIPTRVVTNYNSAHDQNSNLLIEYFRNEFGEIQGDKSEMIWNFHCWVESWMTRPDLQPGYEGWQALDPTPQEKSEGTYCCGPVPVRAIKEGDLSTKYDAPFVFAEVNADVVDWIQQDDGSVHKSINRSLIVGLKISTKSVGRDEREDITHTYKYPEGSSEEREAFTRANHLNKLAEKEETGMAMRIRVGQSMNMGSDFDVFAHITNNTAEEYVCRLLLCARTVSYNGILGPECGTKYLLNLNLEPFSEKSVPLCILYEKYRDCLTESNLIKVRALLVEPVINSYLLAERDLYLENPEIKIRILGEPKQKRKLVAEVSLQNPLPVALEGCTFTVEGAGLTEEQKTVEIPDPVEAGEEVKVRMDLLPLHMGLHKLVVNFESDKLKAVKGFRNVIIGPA
Procedure: 250 μg of lyophilized his-tagged recombinant human tissue transglutaminase (His6-rh-TG2) are reconstituted by the addition of 150 μl of water (resulting buffer 50 mM of NaH2PO4, 150 mM of NaCl, pH=8).
A 10 mM inhibitor stock solution in DMSO is prepared and diluted with buffer (50 mM of Tris-HCl, 10 mM of CaCl2, 5 mM of DTT, pH=7.5, respectively) to the 20-fold of the concentration desired for the inhibition mixture (at least 1/50 dilution resulting in 2% DMSO concentration).
900 μl of an assay solution composed of 55.56 mM of Tris, 11.11 mM of CaCl2, 0.11% PEG8000, 5.56 mM of DTT, 5.56 mM of glycine methyl ester and 50 μM of Abz-APE(CAD-DNP)QEA-OH, (patent number:), pH=7.5 are placed in a cuvette and brought to a temperature of 37° C. in the measuring cell of a spectrophotometer. 50 μl of the respective inhibitor solution are added to said solution (resulting in a concentration of less than 0.2% of DMSO in the mixture).
7 μl of the transglutaminase solution reconstituted above are diluted with 51 μl of buffer (50 mM of Tris, 100 mM of NaCl, 5 mM of DTT, pH=7.5). 50 μl of said enzyme solution (10 μg His6-rhTG2) are added to the assay solution containing the respective inhibitor concentration. The mixture is incubated for 5 min at 37° C. before the measurement is performed. λexc=313 nm and λem=418 nm, 15 min)
The resulting enzyme activity was measured by analyzing the slope of the straight line obtained by the increase in fluorescence.
DMSO is used instead of inhibitor stock solution in order to determine the non-inhibited enzyme activity. IC50 values are determined by plotting the resulting enzyme activity against the logarithm of the inhibitor concentration. IC50 is defined as the concentration of an inhibitor at which enzyme activity is reduced to 50% after 5 min of preincubation.

TG1 = molecular target: T3, TG1 (Homo sapiens, UniProt P22735); test: Transglutaminase inhibition, IC50 at TG1; details: Table 1
T3 sequence (P22735 1-817): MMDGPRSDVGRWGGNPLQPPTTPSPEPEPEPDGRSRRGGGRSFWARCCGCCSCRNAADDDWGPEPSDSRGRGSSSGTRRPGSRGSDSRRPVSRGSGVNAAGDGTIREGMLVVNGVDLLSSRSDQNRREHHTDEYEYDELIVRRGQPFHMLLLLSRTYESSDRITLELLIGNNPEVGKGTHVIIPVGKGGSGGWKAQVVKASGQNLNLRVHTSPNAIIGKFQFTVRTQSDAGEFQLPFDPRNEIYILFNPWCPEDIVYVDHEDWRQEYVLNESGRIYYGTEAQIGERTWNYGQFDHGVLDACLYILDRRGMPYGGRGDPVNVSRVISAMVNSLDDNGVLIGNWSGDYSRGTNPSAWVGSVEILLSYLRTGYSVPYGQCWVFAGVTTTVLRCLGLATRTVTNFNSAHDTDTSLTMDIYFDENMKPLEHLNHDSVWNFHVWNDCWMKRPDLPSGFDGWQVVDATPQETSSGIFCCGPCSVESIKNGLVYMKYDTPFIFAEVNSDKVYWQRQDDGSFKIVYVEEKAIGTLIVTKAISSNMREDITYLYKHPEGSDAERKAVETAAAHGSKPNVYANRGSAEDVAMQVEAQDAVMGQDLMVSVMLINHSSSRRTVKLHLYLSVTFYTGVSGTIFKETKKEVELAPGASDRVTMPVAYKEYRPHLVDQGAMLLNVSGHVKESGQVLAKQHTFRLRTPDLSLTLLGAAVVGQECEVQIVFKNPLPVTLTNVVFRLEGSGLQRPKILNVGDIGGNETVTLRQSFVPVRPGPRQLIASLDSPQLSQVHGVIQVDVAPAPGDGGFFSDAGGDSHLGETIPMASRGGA

Row | SMILES | IC50 (FXIII) [µM] | IC50 [1] [µM] | IC50 (TG1) [µM]
1 | COC(=O)/C=C/CC[C@H](NC(=O)[C@H](CC(N)=O)NC(C)=O)C(=O)N[C@@H](CCC(=O)O)C(=O)N[C@@H](C)C(=O)N[C@H](C(=O)OC)C(C)C [Compound 7, N^α-acetyl-L-asparaginyl-{[(E)-(L)-6-amino-hept-2-ene-dicarboxylic acid]-1-methanoyl}-L-glutamyl-L-alaninyl-L-valine methyl ester] (Ac-N[X2]EAV-OMe) | 2 | > 50 | > 50
2 | CCC(C)[C@H](NC(=O)[C@@H](NC(=O)[C@H](CC(C)C)NC(=O)[C@H](CO)NC(=O)[C@H](CC/C=C/C(=O)OC)NC(=O)CNC(=O)[C@@H]1CCCN1C(=O)CNC(=O)[C@H](CC(C)C)NC(C)=O)C(C)C)C(=O)NCC(=O)OC (stereo partly drawn) [Compound 8, N^α-acetyl-L-leucinyl-glycinyl-L-prolinyl-glycinyl-{[(E)-(L)-6-amino-hept-2-ene-dicarboxylic acid]-1-ethanoyl}-L-serinyl-L-leucinyl-L-valinyl-L-isoleucinyl-glycine methyl ester] (Ac-LGPG[X2]SLV[Ile(3ξ)]G-OMe) | 0.5 | > 50 | > 50
